We go through 16 compounds from patent US20230312587A1, “PTERIDINONE COMPOUNDS AND USES THEREOF” (Vertex Pharmaceutical Incorporated, priority 2018, published 2023).

Holding throughout (type): cell-based
The test system of test [1] is HepG2 XBP1(u)-Luc cells. Nature of the test: HepG2 XBP1 reporter assay. As to conditions: 6 h. The method, then:
HepG2 hepatoma cells were transduced with a retrovirus encoding the cDNA for unspliced (u) XBP1, which contains a non-processed intron, fused to the cDNA for firefly luciferase. Upon induction of ER stress, the non-processed intron of XBP1(u) is spliced out by active IRE1alpha endonuclease. The resulting spliced (s) XBP1 is now in frame with luciferase which causes the production of active luciferase protein, resulting in bioluminescence
HepG2 XBP1(u)-Luc cells were plated […] Cultured cells with a stably transfected reporter construct were plated at approximately 30,000 cells per well into 96 well multi-well plates for twenty four hours. The testing compounds were then added to the wells in 3-fold serial dilutions using a twenty seven micromolar top concentration. A series of control wells for each cell type received only compound solvent. Six hours after the addition of compound, reporter activity for luciferase was assayed, by addition of the SteadyGlo luminescence reagent (Promega). The reporter luminescence activity was measured using Pherastar plate reader (BMG Labtech). Readings was normalized to DMSO only treated cells, and normalized activities were then used in the IC50 calculations. The HepG2 XBP1 reporter assay data are summarized in Table 47: A<0.6 μM; 0.6 μM≤B<2.0 μM; 2.0 μM≤C<10.0 μM; D≥10.0 μM.
On the technique in general: Reporter assays use an easily measured gene product as a stand-in for the process of interest.

Test [2] has as its system Colo-205 cells. Nature of the test: Calcium flux assay (FLIPR Calcium 5). As to conditions: FLIPR Calcium 5, measured over 36 minutes. Here is the method: Compounds described herein induced ER stress by causing intracellular calcium flux. Calcium flux was measured in Colo-205 cells using the FLTPR® Calcium 5 Assay Kit according to manufacter's protocol (Molecular Devices, Cat. #R8186) on a FLIPR3 system (Molecular Devices). Calcium flux is measured over 36 minutes. The Colo-205 calcium flux assay data are summarized in Table 47: A<0.6 μM; 0.6 μM≤B<2.0 μM; 2.0 μM≤C<10.0 μM; D≥10.0 μM.

The test system of test [3] is Hek293 WFS1 over-expressor. Nature of the test: In vitro cell viability (CellTiter-Glo), Hek293 WFS1 over-expressor. Here is the method: WFS1 cDNA is amplified from clone RC202901 (Origene Technologies) with primers 5′-TCCGCGGCCCCAAGCTTATCGCCATGGACTCCAACACTGC-3′ (SEQ ID NO: 1), 5′-GATGGGCCCAGATCTCGAGTCAGGCCGCCGACAGGAATG-3′ (SEQ ID NO: 2) and cloned into a retroviral mammalian expression vector pCLPCX using HD Infusion (CLONTECH) at Hind3-Xhol sites using standard procedures. The resulting clone is identified as pCLPCX_WFS1.
(§1) HEK293 (ATCC, catalog #CRL-1573) cells are plated in 10 cm dishes (Corning, product #430167) into 10 mL of complete DMEM cell culture media [DMEM (Life Technologies, product #11960-051) media supplemented with 10% FBS (Hyclone, catalog #SH30071.03), antimycotic/antibiotic (Life Technologies, product #15240-062), and Glutamax (Life Technologies, product #35050-061)] at 3×10^6 cells per dish. Cells are allowed to attach and grow overnight at 37° C. in humidified 5% CO2. Cells are co-transfected with pVSV-G, pCMV-Gag/Pol and pCLPCX_WFS1 using Fugene 6 (Promega, catalog #E2691) according to manufacturer's protocol. Separately, cells are co-transfected with pVSV-G, pCMV-Gag/Pol and pCLPCX to produce control retrovirus. Cell culture media containing retrovirus (viral supernatant) is collected at 48 and 72 hours following transfection, filtered through a 0.4 uM filter, and stored at −80° C.
(§2) HEK293 cells are plated in 6 well plates (Corning, product #3516) in 2 mL of complete DMEM cell culture media at 1×10^5 cells well and allowed to attach and grow overnight at 37° C. in humidified 5% CO2. The following day, the media is replaced with viral supernatant to which 10 ug/ml of Polybrene® (Santa Cruz Biotech, catalog #sc-134220) is added. Viral supernatant is replaced 24 hours later with complete DMEM media. Transduced cells are selected in complete DMEM cell culture media containing 1 microgram/mL of puromycin (Life Technologies, catalog #A1113803).
(§3) HEK293 cells containing empty pCLPCx vector (HEK293 empty), HEK293 cells stably over-expression WFS1 (HEK293 WFS1), HepG2, and HepG2 cells where WFS1 was depleted via CRISPR/Cas9 (HepG2 WFS1 KO) cells were plated into 96-well black plates (Corning, product #3904) in 100 microliters of complete DMEM cell culture media [DMEM (Life Technologies, product #11960-051) media supplemented with 10% FBS (Hyclone, catalog #SH30071.03), antimycotic/antibiotic (Life Technologies, product #15240-062), and Glutamax (Life Technologies, product #35050-061)] at 1,000 (HEK293) or 5,000 (HepG2) cells per well. Cells were allowed to attach and grow overnight, after which compounds are added at various concentrations. Cell viability was assessed 96 hrs after compound addition with CellTiter-Glo reagent (Promega, catalog #G7570) according to manufacturer's protocol and measurement on a Pherastar luminescence plate reader (BMG Labtech).
(§4) The IC50s for the viability of both the Hek293 empty vector and WFS1 over-expressing cells are summarized in Table 47: A<0.06 μM; 0.06 μM≤B<0.6 μM; 0.6 μM≤C<3.0 μM; D≥3.0 μM.

Test [4] concerns Hek293 empty vector. Nature of the test: In vitro cell viability (CellTiter-Glo), Hek293 empty vector. The method, then: as §1, §2, §3, §4
[5] abbreviates: Homo sapiens, HEK293, Hek293 WFS1 over-expressing cells, read-out: Hek293 WFS1 viability.
[6] abbreviates: Homo sapiens, HEK293, read-out: Hek293 empty vector viability.
[7] abbreviates: Hek293 WFS1 over-expressing cells, read-out: Hek293 WFS1 viability.
Setting [8] is: Hek293 empty vector, read-out: Hek293 empty vector viability.

The term EC50 denotes the concentration needed to bring the measured effect to its halfway point.

Like-named read-outs stand apart in the source and are kept apart here.

Turning to `Cc1nc(N[C@H]2CC[C@H](n3ccc(C(F)(F)F)n3)C2)nc2c1NC(=O)[C@H](C)N2C` (single isomer, unassigned) [Compound 310], the IC50 was less than 600 nM in test [1] (Homo sapiens), 60 to 600 nM in test [3] (setting [5]) and not below 3000 nM in test [4] (setting [6]). Besides, in test [2] (Homo sapiens, COLO 205, 0.6 h), the EC50 fell in the range of 2000 to 10000 nM.
Taken in the same sequence, the figures for `Cc1nc(N[C@@H]2CC[C@@H](n3ccc(C(F)(F)F)n3)C2)nc2c1NC(=O)[C@H](C)N2C` (single isomer, unassigned) [Compound 311] were less than 600 nM, less than 60 nM, not below 3000 nM and less than 600 nM.
Taken in the same sequence, the figures for `Cc1nc(N[C@H]2CC[C@H](Oc3ccc(C(F)(F)F)nc3)C2)nc2c1NC(=O)[C@H](C)N2C` (single isomer, unassigned) [Compound 376] were 600 to 2000 nM, 60 to 600 nM, not below 3000 nM and 600 to 2000 nM.
With `Cc1nc(N[C@H]2CC[C@H](Oc3ccc(C(F)(F)F)nc3)C2)nc2c1NC(=O)[C@H](C)N2C` (single isomer, unassigned) [Compound 377], the IC50 in test [1] was 600 to 2000 nM; in test [3] (setting [7]) it was less than 60 nM; in test [4] (setting [8]), not below 3000 nM. For the same compound, the EC50 in test [2] is less than 600 nM.
Consider `Cc1nc(NCc2cnn(Cc3ccc(C(F)(F)F)nc3[C@@H](C)O)c2)nc2c1NC(=O)[C@H](C)N2C` (single isomer, unassigned) [Compound 420], for which the values for the IC50 in test [1] (Homo sapiens), in test [3] (setting [5]) and in test [4] (setting [6]) were 2000 to 10000 nM, 60 to 600 nM and not below 3000 nM, respectively. Also, the EC50 in test [2] (Homo sapiens, COLO 205, 0.6 h) is 2000 to 10000 nM.
Turning to `Cc1nc(NCc2cnn(Cc3ccc(F)cc3)c2)nc2c1N(C)C(=O)[C@H](C)N2C` [Compound 1, (7S)-2-(((1-(4-fluorobenzyl)-1H-pyrazol-4-yl)methyl)amino)-4,5,7,8-tetramethyl-7,8-dihydropteridin-6(5H)-one], in test [2] (Homo sapiens, COLO 205, 0.6 h), the 50% effective concentration (EC50) was less than 600 nM. Moreover, the IC50 was less than 60 nM in test [3] (setting [5]) and not below 3000 nM in test [4] (setting [6]).
Taken in the same sequence, the figures for `Cc1nc(NCc2cnn(Cc3ccc(F)cc3)c2)nc2c1NC(=O)[C@H](C)N2C` [Compound 4, (7S)-2-(((1-(4-fluorobenzyl)-1H-pyrazol-4-yl)methyl)amino)-4,7,8-trimethyl-7,8-dihydropteridin-6(5H)-one] were less than 600 nM, less than 60 nM and not below 3000 nM.
Taken in the same sequence, the figures for `COc1c(F)cc(Cn2cc(CNc3nc(C)c4c(n3)N(C)[C@@H](C)C(=O)N4)cn2)cc1F` [Compound 46, (7S)-2-(((1-(3,5-difluoro-4-methoxybenzyl)-1H-pyrazol-4-yl)methyl)amino)-4,7,8-trimethyl-7,8-dihydropteridin-6(5H)-one] were less than 600 nM, less than 60 nM and not below 3000 nM.
Taken in the same sequence, the figures for `Cc1nc(NCc2cnn(Cc3ccc(F)nc3)c2)nc2c1NC(=O)[C@H](C)N2C` [Compound 77] were 600 to 2000 nM, 60 to 600 nM and not below 3000 nM.
With `Cc1nc(N[C@H]2C[C@H](Oc3cc(F)c(F)c(F)c3)C2)nc2c1NC(=O)[C@H](C)N2C` [Compound 246, (7S)-4,7,8-trimethyl-2-((trans-3-(3,4,5-trifluorophenoxy)cyclobutyl)amino)-7,8-dihydropteridin-6(5H)-one], in test [2] (Homo sapiens, COLO 205, 0.6 h), the EC50 is not below 10000 nM. In addition, the IC50 is less than 60 nM in test [3] (setting [5]) and not below 3000 nM in test [4] (setting [6]).
Taken in the same sequence, the figures for `Cc1nc(N[C@H]2C[C@H](Oc3ccc(F)cc3)C2)nc2c1N(C)C(=O)[C@H](C)N2C` [Compound 250, (7S)-2-((trans-3-(4-fluorophenoxy)cyclobutyl)amino)-4,5,7,8-tetramethyl-7,8-dihydropteridin-6(5H)-one] were 600 to 2000 nM, 60 to 600 nM and not below 3000 nM.
In the case of `Cc1nc(N[C@H]2C[C@H](Oc3cc(F)c(F)c(F)c3)C2)nc2c1N(C)C(=O)[C@H](C)N2C` [Compound 253, (7S)-4,5,7,8-tetramethyl-2-((trans-3-(3,4,5-trifluorophenoxy)cyclobutyl)amino)-7,8-dihydropteridin-6(5H)-one], the EC50 in test [2] (Homo sapiens, COLO 205, 0.6 h) was less than 600 nM. The IC50 in test [3] (setting [5]) is less than 60 nM; in test [3] (Homo sapiens, HEK293, cell viability, Hek293 WFS1 over-expressor, read-out: IC50) it was 12 nM; in test [3] (Homo sapiens, HEK293, cell viability, Hek293 WFS1 over-expressor, read-out: IC50 class) it was less than 60 nM; in test [4] (setting [6]) it was not below 3000 nM; in test [4] (Homo sapiens, cell viability, Hek293 empty vector, read-out: IC50), 15000 nM; in test [4] (Homo sapiens, cell viability, Hek293 empty vector, read-out: IC50 class), not below 3000 nM. For the same compound, the “reduction in the IC50 on over-expression of WFS1 in Hek293 cells” value in test [3] (cell viability, WFS1 over-expressor vs empty vector) is on record as more than 1000 fold.
Consider `Cc1nc(N[C@H]2C[C@@H](COc3cc(F)c(F)c(F)c3)C2)nc2c1NC(=O)[C@H](C)N2C` [Compound 257, (7S)-4,7,8-Trimethyl-2-((cis-3-((3,4,5-trifluorophenoxy)methyl)cyclobutyl)-amino)-7,8-dihydropteridin-6(5H)-one], for which the concentration for a half-maximal effect (EC50) in test [2] (Homo sapiens, COLO 205, 0.6 h) lay within 600 to 2000 nM. Moreover, the IC50 in test [3] (setting [5]) was less than 60 nM; in test [4] (setting [6]) it was not below 3000 nM.
As to `Cc1nc(N[C@H]2C[C@H](COc3cc(F)c(F)c(F)c3)C2)nc2c1NC(=O)[C@H](C)N2C` [Compound 258, (7S)-4,7,8-trimethyl-2-((trans-3-((3,4,5-trifluorophenoxy)methyl)-cyclobutyl)amino)-7,8-dihydropteridin-6(5H)-one], in test [2] (Homo sapiens, COLO 205, 0.6 h), the EC50 fell in the range of 600 to 2000 nM. Also, the figures for the IC50 in test [3] (setting [5]) and in test [4] (setting [6]) were 60 to 600 nM and not below 3000 nM, respectively.
Taken in the same sequence, the figures for `Cc1nc(N[C@@H]2CC[C@@H](Oc3cc(F)c(F)c(F)c3)C2)nc2c1N(C)C(=O)[C@H](C)N2C` [Compound 272, (S)-4,5,7,8-tetramethyl-2-(((1R,3R)-3-(3,4,5-trifluorophenoxy)cyclopentyl)amino)-7,8-dihydropteridin-6(5H)-one] were 600 to 2000 nM, less than 60 nM and not below 3000 nM.
In the case of “(7S)-4,7,8-trimethyl-2-((trans-3-(3,4-difluorophenoxy)cyclobutyl)amino)-7,8-dihydropteridin-6(5H)-one [Compound 251]”, the EC50 in test [2] is 600 to 2000 nM. For the same compound, the figures for the IC50 in test [3] (setting [7]) and in test [4] (setting [8]) were 60 to 600 nM and not below 3000 nM, respectively.
